The compounds below were run on Pyricularia grisea (assay: Antifungal activity against Magnaporthe grisea infected rice plant assessed as logarithm of fungal control value at 100 ppm after 5 days).
Assay type: functional
CC(C)Oc1ccc(/N=c2/scc(CC(=O)Nc3ccc(C(F)F)cc3)n2C)cc1 showed an Activity of 1.7.
In the case of Cn1c(CC(=O)Nc2ccc(Cl)cc2)cs/c1=N\c1ccc(Oc2ccccc2)cc1, the Activity is reported as 1.92.
Compound COc1ccc(NC(=O)Cc2cs/c(=N\c3ccc(C(F)(F)F)cc3)n2C)cc1 has an Activity of 1.99.
Cn1c(CC(=O)Nc2ccc(Cl)cc2)cs/c1=N\c1ccc(F)c(Cl)c1 showed an Activity of 1.98.
For CCOc1ccc(NC(=O)Cc2cs/c(=N\c3ccc(F)c(Cl)c3)n2C)cc1, the Activity was 1.94.
In the case of COc1ccc(NC(=O)Cc2cs/c(=N\c3cccc([N+](=O)[O-])c3)n2C)cc1, the Activity is reported as 1.99.
Work on Cn1c(CC(=O)Nc2ccc(OC(F)(F)F)cc2)cs/c1=N\c1cccc(C(F)(F)F)c1 yielded an Activity of 1.7.
Cn1c(CC(=O)Nc2ccc(Br)cc2)cs/c1=N\c1cccc(F)c1 was tested, and the Activity was 1.9.
Work on CCc1ccc(NC(=O)Cc2cs/c(=N\c3ccc(Br)cc3C)n2C)cc1 yielded an Activity of 1.98.
COc1ccc(/N=c2\scc(CC(=O)Nc3ccc(C(F)F)cc3)n2C)cc1 was tested, and the Activity was 1.4.
With CCCCc1ccc(/N=c2/scc(CC(=O)Nc3ccc(OC)cc3)n2C)cc1 the Activity was 1.98.
COc1ccc(NC(=O)Cc2cs/c(=N/c3ccc(Cl)cc3)n2C)cc1 gave an Activity of 1.97.
Work on Cc1ccc(NC(=O)Cc2cs/c(=N\c3ccccc3F)n2C)cc1 yielded an Activity of 1.94.
With CCCCc1ccc(NC(=O)Cc2cs/c(=N\c3cccc(F)c3)n2C)cc1 the Activity was 1.
Cn1c(CC(=O)Nc2ccc(OC(F)(F)F)cc2)cs/c1=N\c1cccc(Br)c1 gave an Activity of 1.7.
CCc1ccc(NC(=O)Cc2cs/c(=N\c3cccc(Cl)c3C)n2C)cc1 gave an Activity of 1.95.
CCc1ccc(NC(=O)Cc2cs/c(=N\c3ccc(F)cc3Cl)n2C)cc1 showed an Activity of 1.98.
CCc1ccc(NC(=O)Cc2cs/c(=N\c3ccc(Br)cc3F)n2C)cc1 showed an Activity of 2.
CCOc1ccc(/N=c2/scc(CC(=O)Nc3ccc(OC)cc3)n2C)cc1 gave an Activity of 1.98.
CCc1ccc(NC(=O)Cc2cs/c(=N\c3ccc(C)cc3Br)n2C)cc1 gave an Activity of 1.94.
COc1ccc(NC(=O)Cc2cs/c(=N/c3ccc([N+](=O)[O-])cc3)n2C)cc1 was tested, and the Activity was 2.
Work on CCc1ccc(NC(=O)Cc2cs/c(=N/c3ccc(Oc4ccccc4)cc3)n2C)cc1 yielded an Activity of 1.98.
Compound CCCCCCc1ccc(/N=c2/scc(CC(=O)Nc3ccc(CC)cc3)n2C)cc1 has an Activity of 2.
Work on CCOc1ccc(NC(=O)Cc2cs/c(=N\c3ccc(F)cc3F)n2C)cc1 yielded an Activity of 1.9.
In the case of COc1ccc(NC(=O)Cc2cs/c(=N\c3ccc(Cl)c(C(F)(F)F)c3)n2C)cc1, the Activity is reported as 2.
Compound COc1ccc(NC(=O)Cc2cs/c(=N\c3cccc(C(F)(F)F)c3)n2C)cc1 has an Activity of 2.
In the case of COc1ccc(NC(=O)Cc2cs/c(=N\c3ccc(C)cc3C)n2C)cc1, the Activity is reported as 1.96.
Work on COc1ccc(NC(=O)Cc2cs/c(=N\c3ccccc3Br)n2C)cc1 yielded an Activity of 1.92.
Compound COc1ccc(NC(=O)Cc2cs/c(=N\c3ccccc3C(C)C)n2C)cc1 has an Activity of 1.9.
For CCc1ccc(NC(=O)Cc2cs/c(=N\c3ccc(F)c([N+](=O)[O-])c3)n2C)cc1, the Activity was 1.98.
With COc1ccc(/N=c2/scc(CC(=O)Nc3ccc(OC(F)(F)F)cc3)n2C)cc1 the Activity was 1.4.
Compound COc1ccc(NC(=O)Cc2cs/c(=N\c3ccc(Cl)cc3F)n2C)cc1 has an Activity of 1.97.
COc1ccc(NC(=O)Cc2cs/c(=N\c3ccc(F)cc3F)n2C)cc1 gave an Activity of 1.97.
In the case of CCCCc1ccc(/N=c2\scc(CC(=O)Nc3ccc(Cl)cc3)n2C)cc1, the Activity is reported as 1.97.
Compound CCc1ccc(NC(=O)Cc2cs/c(=N\c3cccc([N+](=O)[O-])c3)n2C)cc1 has an Activity of 1.99.
Cn1c(CC(=O)Nc2ccc(Oc3ccccc3)cc2)cs/c1=N/c1ccc(Br)cc1 gave an Activity of 1.23.
Work on CCCCOc1ccc(NC(=O)Cc2cs/c(=N/c3ccc(C(F)(F)F)cc3)n2C)cc1 yielded an Activity of 1.
Cn1c(CC(=O)Nc2ccc(Oc3ccccc3)cc2)cs/c1=N/c1ccc(Oc2ccccc2)cc1 showed an Activity of 1.4.
Cn1c(CC(=O)Nc2ccc([N+](=O)[O-])cc2)cs/c1=N\c1ccc(F)cc1F gave an Activity of 1.23.
In the case of Cn1c(CC(=O)Nc2ccc(Oc3ccccc3)cc2)cs/c1=N\c1ccc(F)cc1F, the Activity is reported as 1.23.
CCCCc1ccc(/N=c2/scc(CC(=O)Nc3ccc([N+](=O)[O-])cc3)n2C)cc1 gave an Activity of 1.11.
COc1ccccc1/N=c1\scc(CC(=O)Nc2ccc(OC(F)(F)F)cc2)n1C was tested, and the Activity was 0.7.
With Cc1ccc(/N=c2\scc(CC(=O)Nc3ccc(OC(F)(F)F)cc3)n2C)c(C)c1 the Activity was 1.23.
Cn1c(CC(=O)Nc2ccc(C#N)cc2)cs/c1=N\c1ccc(F)cc1F gave an Activity of 1.23.
With CCc1ccc(NC(=O)Cc2cs/c(=N/c3ccc(-c4ccccc4)cc3)n2C)cc1 the Activity was 1.99.
For CCc1ccc(NC(=O)Cc2cs/c(=N\c3ccccc3F)n2C)cc1, the Activity was 1.99.
Cn1c(CC(=O)Nc2ccc(C(F)F)cc2)cs/c1=N\c1ccc(Br)cc1 was tested, and the Activity was 1.4.
Cn1c(CC(=O)Nc2ccc(Br)cc2)cs/c1=N\c1cccc(Br)c1 gave an Activity of 1.99.
For CCOc1ccc(NC(=O)Cc2cs/c(=N\c3cccc(Br)c3)n2C)cc1, the Activity was 1.91.
In the case of Cn1c(CC(=O)Nc2ccc([N+](=O)[O-])cc2)cs/c1=N/c1ccc(C#N)cc1, the Activity is reported as 0.7.
Cc1ccc(NC(=O)Cc2cs/c(=N/c3ccc(F)cc3)n2C)cc1 showed an Activity of 1.96.
CCc1ccc(NC(=O)Cc2cs/c(=N\c3ccc(Cl)cc3Cl)n2C)cc1 showed an Activity of 1.96.
CCc1ccc(NC(=O)Cc2cs/c(=N/c3ccc(CC#N)cc3)n2C)cc1 was tested, and the Activity was 2.
Compound CCc1ccc(NC(=O)Cc2cs/c(=N/c3ccc(C(C)=O)cc3)n2C)cc1 has an Activity of 2.
Cc1ccc(NC(=O)Cc2cs/c(=N/c3ccc(Br)cc3)n2C)cc1 showed an Activity of 1.94.
Compound COc1ccc(NC(=O)Cc2cs/c(=N\c3ccc(C)c(F)c3)n2C)cc1 has an Activity of 1.98.
COc1ccc(NC(=O)Cc2cs/c(=N\c3ccc(OC)c(Cl)c3)n2C)cc1 was tested, and the Activity was 1.98.
For Cn1c(CC(=O)Nc2ccc([N+](=O)[O-])cc2)cs/c1=N/c1ccc(F)cc1, the Activity was 0.9.
Work on CCCCCOc1ccc(/N=c2/scc(CC(=O)Nc3ccc(CC)cc3)n2C)cc1 yielded an Activity of 1.96.
In the case of CCc1ccc(NC(=O)Cc2cs/c(=N/c3ccc(I)cc3)n2C)cc1, the Activity is reported as 1.97.
CCc1ccc(NC(=O)Cc2cs/c(=N\c3ccc(OC)cc3C)n2C)cc1 was tested, and the Activity was 2.
Compound Cc1ccc(NC(=O)Cc2cs/c(=N\c3ccc(F)cc3F)n2C)cc1 has an Activity of 1.99.
COc1ccc(NC(=O)Cc2cs/c(=N\c3ccc(Cl)c(Cl)c3)n2C)cc1 was tested, and the Activity was 1.98.
In the case of Cn1c(CC(=O)Nc2ccc(Cl)cc2)cs/c1=N\c1ccc(OC(F)(F)F)cc1, the Activity is reported as 1.82.
For CCc1ccc(NC(=O)Cc2cs/c(=N\c3ccc(Cl)cc3F)n2C)cc1, the Activity was 1.99.
Work on Cn1c(CC(=O)Nc2ccc(C(F)F)cc2)cs/c1=N\c1ccc(Cl)cc1 yielded an Activity of 1.52.
Compound CC(C)c1ccc(NC(=O)Cc2cs/c(=N/c3ccc(C(F)(F)F)cc3)n2C)cc1 has an Activity of 1.8.
Work on COc1ccc(NC(=O)Cc2cs/c(=N\c3cccc(C)c3)n2C)cc1 yielded an Activity of 1.98.
With COc1ccc(NC(=O)Cc2cs/c(=N\c3ccccc3F)n2C)cc1 the Activity was 1.99.
Cn1c(CC(=O)Nc2ccc([N+](=O)[O-])cc2)cs/c1=N\c1cccc(F)c1 was tested, and the Activity was 1.23.
Compound Cn1c(CC(=O)Nc2ccc(OC(F)(F)F)cc2)cs/c1=N\c1cccc(F)c1 has an Activity of 1.62.
In the case of COc1ccc(NC(=O)Cc2cs/c(=N\c3ccc(F)c(Cl)c3)n2C)cc1, the Activity is reported as 1.98.
Work on CCc1ccc(NC(=O)Cc2cs/c(=N\c3ccc([N+](=O)[O-])cc3OC)n2C)cc1 yielded an Activity of 1.81.
In the case of COc1ccc(NC(=O)Cc2cs/c(=N/c3ccc(SC)cc3)n2C)cc1, the Activity is reported as 1.96.
Work on CCc1ccc(/N=c2\scc(CC(=O)Nc3ccc(OC)cc3)n2C)cc1 yielded an Activity of 1.98.
Compound CCc1ccc(NC(=O)Cc2cs/c(=N\c3ccc(Br)cc3)n2C)cc1 has an Activity of 1.98.
Work on Cn1c(CC(=O)Nc2ccc(Cl)cc2)cs/c1=N\c1cccc(Br)c1 yielded an Activity of 1.98.
With Cn1c(CC(=O)Nc2ccc(Oc3ccccc3)cc2)cs/c1=N\c1cccc(F)c1 the Activity was 1.23.
CCc1ccc(NC(=O)Cc2cs/c(=N/c3ccc(Cl)cc3)n2C)cc1 showed an Activity of 2.
With CCc1ccc(NC(=O)Cc2cs/c(=N/c3ccc(C#N)cc3)n2C)cc1 the Activity was 1.92.
COc1ccc(NC(=O)Cc2cs/c(=N\c3cccc(Br)c3)n2C)cc1 gave an Activity of 1.99.
In the case of COc1cccc(/N=c2\scc(CC(=O)Nc3ccc(Cl)cc3)n2C)c1, the Activity is reported as 1.76.
COc1ccc(NC(=O)Cc2cs/c(=N\c3ccccc3Cl)n2C)cc1 was tested, and the Activity was 1.98.
With Cn1c(CC(=O)Nc2ccc(Cl)cc2)cs/c1=N\c1cccc(F)c1 the Activity was 1.96.
Work on CCc1ccc(NC(=O)Cc2cs/c(=N\c3ccc(F)c(Cl)c3)n2C)cc1 yielded an Activity of 1.98.
With Cn1c(CC(=O)Nc2ccc(Cl)cc2)cs/c1=N\c1ccc(-c2ccccc2)cc1 the Activity was 1.98.
In the case of Cn1c(CC(=O)Nc2ccc(OC(F)(F)F)cc2)cs/c1=N/c1ccc(Cl)cc1, the Activity is reported as 1.52.
CCc1ccc(NC(=O)Cc2cs/c(=N\c3ccc(C)cc3Cl)n2C)cc1 was tested, and the Activity was 2.
Compound CCCCc1ccc(NC(=O)Cc2cs/c(=N\c3ccc(F)c(Cl)c3)n2C)cc1 has an Activity of 1.3.
In the case of Cn1c(CC(=O)Nc2ccc(OC(F)(F)F)cc2)cs/c1=N\c1ccc(F)cc1, the Activity is reported as 0.9.
With Cn1c(CC(=O)Nc2ccc(Oc3ccccc3)cc2)cs/c1=N\c1cccc(Br)c1 the Activity was 0.9.
COc1ccc(NC(=O)Cc2cs/c(=N/c3ccc(OC(F)(F)F)cc3)n2C)cc1 was tested, and the Activity was 1.99.
For CCc1ccc(NC(=O)Cc2cs/c(=N\c3ccc(C#N)c(Cl)c3)n2C)cc1, the Activity was 1.98.
CCCCc1ccc(/N=c2/scc(CC(=O)Nc3ccc(CC)cc3)n2C)cc1 gave an Activity of 1.99.
Work on CCc1ccc(NC(=O)Cc2cs/c(=N\c3ccc(Br)c(C)c3)n2C)cc1 yielded an Activity of 1.98.
In the case of CCCCOc1ccc(NC(=O)Cc2cs/c(=N\c3cccc(F)c3)n2C)cc1, the Activity is reported as 1.
With COc1ccc(NC(=O)Cc2cs/c(=N\c3cccc(F)c3)n2C)cc1 the Activity was 1.97.
In the case of CCc1ccc(NC(=O)Cc2cs/c(=N/c3ccc(OC(F)(F)F)cc3)n2C)cc1 (stereo in doubt; 5), the Activity is reported as 1.99.
CCc1ccc(NC(=O)Cc2cs/c(=N/c3ccc(OC(F)(F)F)cc3)n2C)cc1 (stereo in doubt; 8) gave an Activity of 1.93.

Source: ChEMBL document CHEMBL1142346, “Quantitative structural-activity relationship (QSAR) study for fungicidal activities of thiazoline derivatives against rice blast” (2008)
